Nine molecules from patent US20140038991A1, “Protein Kinase Inhibitors” (Astar Biotech LLC, priority 2012, published 2014) can be followed below.

The subject of experiment [1] is LNCaP (with PTEN-null, prostate tumor cell line). Description: Cell-based viability assay (trypan blue exclusion) in LNCaP cells. As to conditions: 72 hours treatment, read-out: LNCaP (with PTEN-null, prostate tumor cell line), IC50 (nM) (using cell trypan blue exclusion assay to detect the cell viability). As to the method:
1. Cell-Based Assays: Cells were seeded in 24-well plates with a concentration of 10×10^5 cells/mL/well, and treated with the designated agents in the next day. After 72 hours treatment, cells were harvested and stained using the trypan blue exclusion method and measured using the TC-10™ automated cell counter (Bio-rad).

Experiment [2] deals with downstream targets of PI3K/mTOR in T47D (with PIK3CA mutation, breast tumor cell line). As to the kind of experiment: Western blot detection of downstream targets of PI3K/mTOR in T47D cells. It is filed as cell-based. As to conditions: read-out: T47D (with PIK3CA mutation, breast tumor cell line), IC50 (nM) (using Westin blot to detect the downstream targets of PI3K/mTOR). As to the method:
a. Harvest Cells and Run Cell Extracts on a SDS-PAGE Gel
Cells were harvested bytrypsinization and centrifugation at 500 rpm for 5 min and the supernatant was removed. Cell pellet was resuspended with appropriate volume of 1× lysis buffer (10× lysis buffer from Cell Signaling Technology, Catalog #9803, Boston, Mass.) containing protease inhibitors (Protease Inhibitor Cocktail Tablets, Roche, cat#11 697 498 001 and PMSF, NaF, Na3VO3, Leupeptin and pepstatin A), then directly sonicated the suspension for 5 seconds. Protein concentration was measured using Pierce BAC protein assay kit (catalog #23227). The protein sample was read with EL800 of Bio-TEK at […] wave length and the concentration was calculated. 60 ug protein of each sample was loaded on an 8-15% SDS-PAGE and run at 120V for an appropriate period till the dye front reached the bottom of the gel. […]
b. Transfer the Protein from the Gel to a Membrane
Placed a cassette using pre-wet Watman paper(bio-rad, catalog #1703932), gel and membrane (PVDF membrane with pre-soak in methanol for 3 min, then equilibrated in transfer buffer for 5 min), and performed the transfer using bio-rad transfer system at 100v for 1.5 hr at cool room.
Removed the membrane from the transfer apparatus and placed it in the blocking buffer [5% non-fat dry milk in 1×TBS-T containing NaCl 8 g, Tris-Cl 2.37 g, TrisBase 0.6 g in 1 liter of water (pH 7.6) and 1 ml of Tween-20]. Incubated the membrane in the blocking buffer on a shaker for 0.5-1 hr at room temperature.
Diluted the primary antibody at 1:1000 using TBS-T containing 5% non-fat dry milk, and incubated the membrane in the primary antibody solution on a shaker overnight at 4° C. Then removed the primary antibody solution, and washed the membrane with 1×TBS-T 3 times for 10 min each time. e. Secondary Antibody, Substrate Addition and Film Explosure
Diluted the second antibody (cell signaling technology cat#7076 anti-mouse IgG, HRP-linked antibody, or cat#7074, anti-rabbit IgG, HRP-linked antibody) at 1:3000 using TBS-T containing 5% non-fat dry milk. Decanted the wash buffer and incubated the membrane in the prepared secondary antibody solution on shaker for 2 hr at room temperature. Decanted the secondary antibody solution and washed thoroughly with 1×TBS-T for 3 times for 10 min each time. Prepared for substrate solution: luminal/enhancer solution mix with stable peroxide solution (Amersham ECL Plus™ Western Blotting Detection Reagents. Cat#: RPN2132). Total amount of substrate solution needed was approximate 2 ml per membrane. Placed the membrane with the protein side up on a flat Saran wrap, and dropped the prepared substrate solution over the membrane, and incubated the membrane for 2 minutes. […]

Consider `COc1ncc(-c2cc3c(C)nc(N)nc3n([C@H]3CC[C@H](OCCO)CC3)c2=O)cc1NS(=O)(=O)c1ccccc1` [Example 1, N-(5-(2-amino-8-(trans-4-(2-hydroxyethoxy)-cyclohexyl)-4-methyl-7-oxo-7,8-dihydropyrido[2,3-d]pyrimidin-6-yl)-2-methoxypyridin-3-yl)benzenesulfonamide], for which the IC50 in experiment [1] was 35 nM; in experiment [2], 12 nM.
Consider `COc1ncc(-c2cc3c(C)nc(N)nc3n([C@H]3CC[C@H](OCCO)CC3)c2=O)cc1NS(C)(=O)=O` [Example 2, N-(5-(2-amino-8-(trans-4-(2-hydroxyethoxy)cyclohexyl)-4-methyl-7-oxo-7,8-dihydropyrido[2,3-d]pyrimidin-6-yl)-2-methoxypyridin-3-yl)methanesulfonamide], for which the IC50 in experiment [1] amounted to 150 nM.
On the same count and under the same terms, the value for `CCS(=O)(=O)Nc1cc(-c2cc3c(C)nc(N)nc3n([C@H]3CC[C@H](OCCO)CC3)c2=O)cnc1OC` [Example 3, N-(5-(2-amino-8-(trans-4-(2-hydroxyethoxy)cyclohexyl)-4-methyl-7-oxo-7,8-dihydropyrido [2,3-d]pyrimidin-6-yl)-2-methoxypyridin-3-yl)ethanesulfonamide] was 140 nM; that for `COc1ncc(-c2cc3c(C)nc(N)nc3n([C@H]3CC[C@H](OCCO)CC3)c2=O)cc1NS(=O)(=O)C1CC1` [Example 4, N-(5-(2-amino-8-(trans-4-(2-hydroxyethoxy)cyclohexyl)-4-methyl-7-oxo-7,8-dihydropyrido[2,3-d]pyrimidin-6-yl)-2-methoxypyridin-3-yl)cyclopropanesulfonamide] was 130 nM.
In the case of `COc1ncc(-c2cc3c(C)nc(N)nc3n([C@H]3CC[C@H](OCCO)CC3)c2=O)cc1NS(=O)(=O)c1ccc(F)cc1` [Example 5, N-(5-(2-amino-8-(trans-4-(2-hydroxyethoxy)cyclohexyl)-4-methyl-7-oxo-7,8-dihydropyrido[2,3-d]pyrimidin-6-yl)-2-methoxypyridin-3-yl)-4-fluorobenzenesulfonamide], the IC50 in experiment [1] was found to be 55 nM.
Turning to `COc1ncc(-c2cc3c(C)nc(N)nc3n([C@H]3CC[C@H](OCCO)CC3)c2=O)cc1NS(=O)(=O)c1c(F)cccc1F` [Example 6, N-(5-(2-amino-8-(trans-4-(2-hydroxyethoxy)cyclohexyl)-4-methyl-7-oxo-7,8-dihydropyrido[2,3-d]pyrimidin-6-yl)-2-methoxypyridin-3-yl)-2,6-difluorobenzenesulfonamide], in experiment [1], the IC50 is 60 nM.
Consider `COc1ccc(S(=O)(=O)Nc2cc(-c3cc4c(C)nc(N)nc4n([C@H]4CC[C@H](OCCO)CC4)c3=O)cnc2OC)cc1` [Example 7, N-(5-(2-amino-8-(trans-4-(2-hydroxyethoxy)cyclohexyl)-4-methyl-7-oxo-7,8-dihydropyrido[2,3-d]pyrimidin-6-yl)-2-methoxypyridin-3-yl)-4-methoxybenzenesulfonamide], for which the IC50 in experiment [1] is 40 nM; in experiment [2], 12 nM.
On the same counts, the results for `COc1ncc(-c2cc3c(C)nc(N)nc3n([C@H]3CC[C@H](OCCO)CC3)c2=O)cc1NS(=O)(=O)c1ccc(C)cc1` [Example 8, N-(5-(2-amino-8-(trans-4-(2-hydroxyethoxy)cyclohexyl)-4-methyl-7-oxo-7,8-dihydropyrido[2,3-d]pyrimidin-6-yl)-2-methoxypyridin-3-yl)-4-methylbenzenesulfonamide] are 45 nM and 15 nM.
Consider `COc1ccc(-c2cc3c(C)nc(N)nc3n(C3CCC(OCCO)CC3)c2=O)cn1` (stereo not shown) [PF-1502, reference compound], for which the IC50 in experiment [1] worked out at 75 nM; in experiment [2], 85 nM.
